Test results from ChEMBL document CHEMBL4819035, “C-2-Linked Dimeric Strychnine Analogues as Bivalent Ligands Targeting Glycine Receptors” (J Nat Prod, 2021).

Tests used:
[1] = target: T1, Glycine receptor subunit alpha-1 (Homo sapiens, UniProt P23415); experiment: Antagonist activity at human glycine receptor subunit alpha-1 expressed in human tsA201 cells assessed as reduction in glycine-induced response incubated for 30 mins by fluorescence-based FLIPR membrane potential blue assay; type: cell-based; settings: for IC50: read-out: IC50
T1 sequence (P23415 whole entry): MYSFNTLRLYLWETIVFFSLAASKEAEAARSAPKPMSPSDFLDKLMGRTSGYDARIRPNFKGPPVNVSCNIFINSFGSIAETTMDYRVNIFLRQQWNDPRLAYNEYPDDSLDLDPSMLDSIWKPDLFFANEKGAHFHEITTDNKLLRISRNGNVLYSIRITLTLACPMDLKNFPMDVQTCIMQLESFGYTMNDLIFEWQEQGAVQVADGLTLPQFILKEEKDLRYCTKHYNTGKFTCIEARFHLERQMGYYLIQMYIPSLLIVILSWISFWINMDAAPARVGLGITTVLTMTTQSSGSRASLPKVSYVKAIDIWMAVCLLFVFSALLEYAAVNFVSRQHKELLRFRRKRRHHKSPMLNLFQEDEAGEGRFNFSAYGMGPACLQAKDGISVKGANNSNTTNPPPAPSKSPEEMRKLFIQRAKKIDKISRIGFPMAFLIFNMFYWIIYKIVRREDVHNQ

[2] = target: T1, Glycine receptor subunit alpha-1; experiment: Antagonist activity at human glycine receptor subunit alpha-1 expressed in HEK293 cells assessed as reduction in glycine-induced currents by whole-cell patch-clamp assay; type: cell-based
[3] = target: T2, Glycine receptor (alpha-1/beta) (Homo sapiens, UniProt P23415+P48167); experiment: Antagonist activity at human glycine receptor subunit alpha-1beta expressed in HEK293 cells assessed as reduction in glycine-induced currents by whole-cell patch-clamp assay; type: cell-based
[4] = target: T2, Glycine receptor (alpha-1/beta); experiment: Antagonist activity at human glycine receptor subunit alpha-1beta expressed in human tsA201 cells assessed as reduction in glycine-induced response incubated for 30 mins by fluorescence-based FLIPR membrane potential blue assay; type: cell-based; settings: read-out: IC50
[5] = target: T1, Glycine receptor subunit alpha-1; experiment: Antagonist activity at human glycine receptor subunit alpha-1 assessed as inhibition of glycine-induced current measured at the later state of compound application by patch-clamp assay
[6] = target: T1, Glycine receptor subunit alpha-1; experiment: Displacement of [3H]strychnine from human glycine receptor subunit alpha-1 expressed in HEK293 cell membranes preincubated for 30 mins followed by [3H]strychnine addition and measured after 30 mins by liquid scintillation counting method; design: species or system Membrane
[7] = target: T1, Glycine receptor subunit alpha-1; experiment: Antagonist activity at human glycine receptor subunit alpha-1 assessed as inhibition of glycine-induced current measured at the onset of compound application by patch-clamp assay

T2 sequence (P48167 whole entry, one chain of several): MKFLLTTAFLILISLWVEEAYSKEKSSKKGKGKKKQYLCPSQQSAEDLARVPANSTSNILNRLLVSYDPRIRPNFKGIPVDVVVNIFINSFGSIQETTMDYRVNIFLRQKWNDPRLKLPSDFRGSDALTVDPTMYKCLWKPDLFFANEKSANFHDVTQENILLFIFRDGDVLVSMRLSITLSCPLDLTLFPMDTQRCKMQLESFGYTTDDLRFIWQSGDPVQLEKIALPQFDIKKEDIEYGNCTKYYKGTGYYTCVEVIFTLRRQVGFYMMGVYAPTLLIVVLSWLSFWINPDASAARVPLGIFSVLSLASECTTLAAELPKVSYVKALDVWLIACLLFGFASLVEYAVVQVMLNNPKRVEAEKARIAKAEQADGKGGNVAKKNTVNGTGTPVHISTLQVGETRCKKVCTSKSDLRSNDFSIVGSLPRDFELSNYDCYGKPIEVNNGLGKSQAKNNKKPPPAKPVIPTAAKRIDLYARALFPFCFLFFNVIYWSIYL

SMILES | IC50 [1] | IC50 [2] | IC50 [3] | IC50 [4] | pIC50 ([1]; tsa201) | IC50 [5] | Ki [6] | IC50 [7] | IC50 ([4]; tsa201)
O=C(CCCCCCC(=O)Nc1ccc2c(c1)[C@@]13CCN4CC5=CCO[C@H]6CC(=O)N2[C@H]1[C@H]6[C@H]5C[C@H]43)Nc1ccc2c(c1)[C@@]13CCN4CC5=CCO[C@H]6CC(=O)N2[C@H]1[C@H]6[C@H]5C[C@H]43 | 6.9 µM | 1100 nM | 1300 nM | 10000 nM |  |  |  |  | 
O=C(CCCCCCCCCCC(=O)Nc1ccc2c(c1)[C@@]13CCN4CC5=CCO[C@H]6CC(=O)N2[C@H]1[C@H]6[C@H]5C[C@H]43)Nc1ccc2c(c1)[C@@]13CCN4CC5=CCO[C@H]6CC(=O)N2[C@H]1[C@H]6[C@H]5C[C@H]43 | 1.1 µM | 720 nM | 800 nM | 1800 nM |  |  |  |  | 
O=C1C[C@@H]2OCC=C3CN4CC[C@]56c7ccccc7N1[C@H]5[C@H]2[C@H]3C[C@H]46 [STRYCHNINE] |  | 50 nM | 60 nM |  | 6.82 | 27 nM | 5 nM | 134 nM | 510 nM
